# Assays:
# [1] = target: T1, Angiotensin-converting enzyme (Homo sapiens, UniProt P12821); assay: Inhibition of human testis ACE C-domain lacking unique O-glycosylated region, transmembrane anchor and cytoplasmic tail expressed in CHO cells using Z-FHL as substrate by fluorescence based assay
# Neprilysin [2] = target: Neprilysin (Homo sapiens, UniProt P08473); assay: Inhibition of NEP (unknown origin)
# [3] = target: T1, Angiotensin-converting enzyme; assay: Inhibition of human somatic ACE N-domain soluble form (1 to 629 residues) expressed in CHO cells using Z-FHL as substrate preincubated with enzyme followed by substrate addition by fluorescence based assay
# [4] = target: T1, Angiotensin-converting enzyme; assay: Inhibition of human ACE using MCA-RPPGFSAFK-Dnp-OH as substrate by fluorescence based analysis
# Neprilysin [5] = target: T2, Neprilysin (Rattus norvegicus, UniProt P07861); assay: Inhibition of rat kidney NEP using glutaryl-Ala-Ala-beta-naphthylamide as substrate preincubated with enzyme for 15 mins followed by substrate addition
# T2 sequence (P07861 whole entry): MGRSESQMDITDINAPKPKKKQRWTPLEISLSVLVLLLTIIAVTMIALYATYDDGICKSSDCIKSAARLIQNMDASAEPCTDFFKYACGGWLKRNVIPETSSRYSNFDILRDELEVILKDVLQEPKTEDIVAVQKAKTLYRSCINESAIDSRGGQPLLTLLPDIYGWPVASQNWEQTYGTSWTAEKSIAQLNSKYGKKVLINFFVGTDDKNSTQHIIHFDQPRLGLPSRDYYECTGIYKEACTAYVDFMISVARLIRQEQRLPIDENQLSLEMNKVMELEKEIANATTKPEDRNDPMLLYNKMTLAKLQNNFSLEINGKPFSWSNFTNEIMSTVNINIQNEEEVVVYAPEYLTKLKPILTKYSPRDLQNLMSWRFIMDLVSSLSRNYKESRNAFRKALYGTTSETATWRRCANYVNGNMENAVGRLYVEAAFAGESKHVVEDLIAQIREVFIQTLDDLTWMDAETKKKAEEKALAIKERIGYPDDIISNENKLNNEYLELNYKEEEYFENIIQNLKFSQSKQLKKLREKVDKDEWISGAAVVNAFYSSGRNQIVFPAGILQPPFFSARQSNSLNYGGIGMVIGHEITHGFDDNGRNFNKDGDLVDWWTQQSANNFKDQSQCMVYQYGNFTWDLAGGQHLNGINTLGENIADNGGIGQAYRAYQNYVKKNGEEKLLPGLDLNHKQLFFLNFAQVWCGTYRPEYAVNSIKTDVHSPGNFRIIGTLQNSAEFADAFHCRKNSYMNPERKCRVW
# [6] = Inhibition of rabbit lung ACE using hippuryl-His-Leu as substrate preincubated with enzyme for 15 mins followed by substrate addition; set-up: species or system Oryctolagus cuniculus
# T1 sequence (P12821 whole entry): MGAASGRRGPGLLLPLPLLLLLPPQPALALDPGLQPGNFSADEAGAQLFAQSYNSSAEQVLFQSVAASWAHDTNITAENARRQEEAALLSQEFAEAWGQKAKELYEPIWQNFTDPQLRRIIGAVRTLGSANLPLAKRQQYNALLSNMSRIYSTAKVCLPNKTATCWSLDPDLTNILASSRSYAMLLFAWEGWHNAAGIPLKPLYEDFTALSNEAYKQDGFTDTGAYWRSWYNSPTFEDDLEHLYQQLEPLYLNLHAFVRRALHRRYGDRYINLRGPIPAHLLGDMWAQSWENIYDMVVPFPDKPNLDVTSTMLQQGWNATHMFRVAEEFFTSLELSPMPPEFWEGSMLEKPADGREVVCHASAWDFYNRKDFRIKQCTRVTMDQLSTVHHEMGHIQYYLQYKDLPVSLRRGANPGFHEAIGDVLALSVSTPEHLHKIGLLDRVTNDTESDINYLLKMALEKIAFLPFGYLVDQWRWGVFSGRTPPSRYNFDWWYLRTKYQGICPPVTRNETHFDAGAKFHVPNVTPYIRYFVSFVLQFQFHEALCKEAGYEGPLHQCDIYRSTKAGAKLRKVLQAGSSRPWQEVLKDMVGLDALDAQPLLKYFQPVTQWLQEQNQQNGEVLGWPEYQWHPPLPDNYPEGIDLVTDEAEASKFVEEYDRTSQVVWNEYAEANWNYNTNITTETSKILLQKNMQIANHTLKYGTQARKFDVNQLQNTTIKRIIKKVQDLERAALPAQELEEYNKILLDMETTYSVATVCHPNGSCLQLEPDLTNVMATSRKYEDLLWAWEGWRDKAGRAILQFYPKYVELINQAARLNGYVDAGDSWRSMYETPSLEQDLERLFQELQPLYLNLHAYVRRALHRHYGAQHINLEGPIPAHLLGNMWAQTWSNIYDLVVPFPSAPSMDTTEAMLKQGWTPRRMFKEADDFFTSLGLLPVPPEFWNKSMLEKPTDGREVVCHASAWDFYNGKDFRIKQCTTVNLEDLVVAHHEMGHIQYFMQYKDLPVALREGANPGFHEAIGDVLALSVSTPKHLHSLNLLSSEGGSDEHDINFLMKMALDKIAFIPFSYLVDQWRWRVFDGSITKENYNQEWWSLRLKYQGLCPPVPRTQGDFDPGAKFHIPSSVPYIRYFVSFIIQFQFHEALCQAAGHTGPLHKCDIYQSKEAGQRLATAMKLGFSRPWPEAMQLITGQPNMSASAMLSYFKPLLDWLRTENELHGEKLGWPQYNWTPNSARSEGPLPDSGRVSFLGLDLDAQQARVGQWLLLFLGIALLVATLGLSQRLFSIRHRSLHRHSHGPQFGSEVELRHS
# Chain of Neprilysin (Homo sapiens, UniProt P08473) (P08473 whole entry, the tested form may be a part): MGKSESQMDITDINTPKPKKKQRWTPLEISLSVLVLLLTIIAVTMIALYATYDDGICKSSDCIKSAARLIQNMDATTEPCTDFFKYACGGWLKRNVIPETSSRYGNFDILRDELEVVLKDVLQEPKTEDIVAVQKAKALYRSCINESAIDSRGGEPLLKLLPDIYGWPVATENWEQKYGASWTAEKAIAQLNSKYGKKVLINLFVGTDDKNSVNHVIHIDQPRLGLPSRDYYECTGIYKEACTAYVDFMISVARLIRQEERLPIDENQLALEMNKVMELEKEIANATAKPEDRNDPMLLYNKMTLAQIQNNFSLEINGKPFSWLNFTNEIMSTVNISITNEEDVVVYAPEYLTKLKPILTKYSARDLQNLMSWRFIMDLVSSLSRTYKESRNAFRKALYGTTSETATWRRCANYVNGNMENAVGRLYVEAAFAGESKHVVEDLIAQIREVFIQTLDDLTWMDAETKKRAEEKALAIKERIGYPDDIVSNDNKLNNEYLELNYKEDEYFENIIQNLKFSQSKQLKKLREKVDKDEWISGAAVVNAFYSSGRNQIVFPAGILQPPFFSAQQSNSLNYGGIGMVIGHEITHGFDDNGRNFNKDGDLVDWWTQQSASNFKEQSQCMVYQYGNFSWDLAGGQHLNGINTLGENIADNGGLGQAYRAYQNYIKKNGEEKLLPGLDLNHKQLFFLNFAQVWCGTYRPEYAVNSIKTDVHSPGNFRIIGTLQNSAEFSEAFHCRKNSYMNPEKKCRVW
Ki [1],Ki [3],Structure (SMILES),further results
13.8 nM,172 nM,CS(=O)(=O)N[C@@H](CCCCN)C(=O)NC[C@H](CC1(C(=O)N[C@@H](Cc2ccc(O)cc2)C(=O)O)CCCC1)C(=O)O,IC50 (Neprilysin [2]): 8 nM
7400 nM,10600 nM,CC(=O)N[C@@H](CC(=O)O)C(=O)NC[C@H](CC1(C(=O)N[C@@H](Cc2ccc(O)cc2)C(=O)O)CCCC1)C(=O)O,
,,C[C@H](C[C@@H](Cc1ccc(-c2ccccc2)cc1)NC(=O)CCC(=O)O)C(=O)O [LBQ-657],IC50 [4]: > 100000 nM
,,CC(C)C[C@H](NP(=O)(O)O[C@@H]1O[C@@H](C)[C@H](O)[C@@H](O)[C@H]1O)C(=O)N[C@@H](Cc1c[nH]c2ccccc12)C(=O)O [PHOSPHORAMIDON],IC50 (Neprilysin [5]): 34 nM; IC50 [6]: 78000 nM

# — ChEMBL document CHEMBL4402607, “Molecular Basis for Omapatrilat and Sampatrilat Binding to Neprilysin-Implications for Dual Inhibitor Design with Angiotensin-Converting Enzyme” (J Med Chem, 2020)
